What was measured:
IL-12p40 production = assay: In vitro inhibition of IL-12p40 production in human blood (LPS-stimulated whole blood, sandwich ELISA); assay type: cell-based; conditions: lipopolysaccharide 100 ng/ml, 24 hours, read-out: % inhib. IL-12 (p40); for inhibition at 1 µM: test dose 1 × 10^−6 M
Method: (§1) Peripheral blood from healthy male donors was drawn into heparinized syringes (12.5 U heparin/ml). Blood samples were three-fold diluted in RMPI 1640 medium (Life Technologies, Belgium) supplemented with 2 mM L-glutamine, 100 U/ml penicillin and 100 μg/ml streptomycin, and 300 μl fractions were distributed in 24-well multidisc plates (Nunc, Roskilde, Denmark). Blood samples were preincubated (60 minutes at 37° C.) in a humidified 6% CO2-atmosphere with 100 μl of drug solvent (final concentration 0.02% dimethylsulfoxide in RPMI 1640) or with 100 μl of an appropriate dose of test compound before being stimulated by the addition of 100 μl of lipopolysaccharide at a final concentration of 100 ng/ml. After 24 hours, cell-free supernatant fluids were collected by centrifugation and stored at −20° C. until tested for the presence of IL-12p40.
(§2) Cytokine protein concentrations were determined by sandwich ELISA as described in Van Wauwe et al. (1996, Inflamm Res, 45, 357-363). Murine monoclonals used as capture antibodies to human cytokines were obtained from R&D Systems (Abingdon, United Kingdom) and code named MAB210 and MAB611 for TNF-α and IL-12 respectively. Biotinylated goat polyclonal antibodies used to detect human cytokines were from R&D Systems (BAF210, BAF219). Cytokine levels were calculated from standard curves using recombinant cytokines supplied by R&D Systems.

TNF-α production = assay: In vitro inhibition of TNF-α production in human blood (LPS-stimulated whole blood, sandwich ELISA); assay type: cell-based; conditions: lipopolysaccharide 100 ng/ml, 6 hours, read-out: % inhib. TNF-α
Method: as §1, with “After 6” for “After 24”, “of TNF-α.” for “of IL-12p40.”
as §2

melting point	SMILES	inhibition at 1 µM (IL-12p40 production)	inhibition at 0.1 µM (IL-12p40 production; test dose 1 × 10^−7 M)	inhibition at 1 µM (TNF-α production; test dose 1 × 10^−6 M)	inhibition at 0.1 µM (TNF-α production; test dose 1 × 10^−7 M)
208 to 210 °C	Fc1sc(Nc2cccc(C(F)(F)F)c2)nc1-c1cccnc1 [Compound 1]	54%	56%	60%	58%
–	CC(O)c1sc(Nc2cccc(C(F)(F)F)c2)nc1-c1cccnc1 (stereo not drawn) [Compound 14]	52%	–	–	–

Source: US7803823B2, “2-amino-4,5-trisubstituted thiazolyl derivatives” (Janssen Pharmaceutica NV, priority 2001, dated 2010)
